# Measured values taken from the supplement of paper PMC10307832.
# Assays:
# Experiment in all cases: relative viability (nuclei count vs DMSO), 5 days (fraction); higher = more cells survive
# HCC-366 = tested on: HCC-366
# How it was run: (§1)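 For relative viability, nuclei counts in treated wells were divided by those in vehicle wells. Lung cancer cell lines had been pin-tool dosed in 1536-well plates the day after seeding and cultured for 5 days, then fixed and stained in one step (final 0.05% Triton X-100, 1% formaldehyde, 1 ug/ml Hoechst) and imaged at 4×. Doses were one drug alone or a fixed anchor-drug dose plus five library-drug doses (not always all listed) in √10 steps, and values are duplicate-plate medians.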
# NCI-H3122 = tested on: NCI-H3122
# How it was run: as §1
# ABC-1 = tested on: ABC-1
# How it was run: as §1
# EPLC-272H = tested on: EPLC-272H
# How it was run: as §1
# HCC-15 = tested on: HCC-15
# How it was run: as §1
# PC-14 = tested on: PC-14
# How it was run: as §1
# NCI-H1355 = tested on: NCI-H1355
# How it was run: as §1
# NCI-H2347 = tested on: NCI-H2347
# How it was run: as §1
# NCI-H1944 = tested on: NCI-H1944
# How it was run: as §1
# NCI-H1793 = tested on: NCI-H1793
# How it was run: as §1
# NCI-H2085 = tested on: NCI-H2085
# How it was run: as §1
# HCC-44 = tested on: HCC-44
# How it was run: as §1
# HCC-827 = tested on: HCC-827
# How it was run: as §1
# ChaGo-K-1 = tested on: ChaGo-K-1
# How it was run: as §1
# LCLC-103H = tested on: LCLC-103H
# How it was run: as §1
# NCI-H2405 = tested on: NCI-H2405
# How it was run: as §1
# NCI-H1734 = tested on: NCI-H1734
# How it was run: as §1
structure (smiles),measurement,setting,value
CN1CCN(CCOc2cc(OC3CCOCC3)c3c(Nc4c(Cl)ccc5c4OCO5)ncnc3c2)CC1 [Saracatinib] + NC(=O)Nc1cc(-c2cccc(F)c2)sc1C(=O)N[C@H]1CCCNC1 [AZD7762] (partner 0.2 µM),relative viability,HCC-366; first compound 0.02 µM,0.215
same,relative viability,HCC-366; first compound 0.2 µM,0.0547
same,relative viability,HCC-366; first compound 0.6325 µM,0.216
same,relative viability,HCC-366; first compound 2 µM,0.139
same,relative viability,NCI-H3122; first compound 0.02 µM,0.97
same,relative viability,NCI-H3122; first compound 0.2 µM,0.922
same,relative viability,NCI-H3122; first compound 0.6325 µM,0.889
same,relative viability,NCI-H3122; first compound 2 µM,0.698
same,relative viability,ABC-1; first compound 0.02 µM,0.934
same,relative viability,ABC-1; first compound 0.2 µM,0.825
same,relative viability,ABC-1; first compound 0.6325 µM,0.908
same,relative viability,ABC-1; first compound 2 µM,0.695
same,relative viability,EPLC-272H; first compound 0.02 µM,0.203
same,relative viability,EPLC-272H; first compound 0.2 µM,0.229
same,relative viability,EPLC-272H; first compound 0.6325 µM,0.18
same,relative viability,EPLC-272H; first compound 2 µM,0.245
same,relative viability,HCC-15; first compound 0.02 µM,1.29
same,relative viability,HCC-15; first compound 0.2 µM,0.874
same,relative viability,HCC-15; first compound 0.6325 µM,1.14
same,relative viability,HCC-15; first compound 2 µM,1.21
same,relative viability,PC-14; first compound 0.02 µM,0.381
same,relative viability,PC-14; first compound 0.2 µM,0.286
same,relative viability,PC-14; first compound 0.6325 µM,0.246
same,relative viability,PC-14; first compound 2 µM,0.203
same,relative viability,NCI-H1355; first compound 0.02 µM,0.769
same,relative viability,NCI-H1355; first compound 0.2 µM,0.564
same,relative viability,NCI-H1355; first compound 0.6325 µM,0.719
same,relative viability,NCI-H1355; first compound 2 µM,0.715
same,relative viability,NCI-H2347; first compound 0.02 µM,0.828
same,relative viability,NCI-H2347; first compound 0.2 µM,0.663
same,relative viability,NCI-H2347; first compound 0.6325 µM,0.623
same,relative viability,NCI-H2347; first compound 2 µM,0.657
same,relative viability,NCI-H1944; first compound 0.02 µM,0.476
same,relative viability,NCI-H1944; first compound 0.2 µM,0.413
same,relative viability,NCI-H1944; first compound 0.6325 µM,0.528
same,relative viability,NCI-H1944; first compound 2 µM,0.404
same,relative viability,NCI-H1793; first compound 0.02 µM,0.304
same,relative viability,NCI-H1793; first compound 0.2 µM,0.233
same,relative viability,NCI-H1793; first compound 0.6325 µM,0.312
same,relative viability,NCI-H1793; first compound 2 µM,0.26
same,relative viability,NCI-H2085; first compound 0.02 µM,1.06
same,relative viability,NCI-H2085; first compound 0.2 µM,0.864
same,relative viability,NCI-H2085; first compound 0.6325 µM,0.903
same,relative viability,NCI-H2085; first compound 2 µM,0.871
same,relative viability,HCC-44; first compound 0.02 µM,1.07
same,relative viability,HCC-44; first compound 0.2 µM,0.941
same,relative viability,HCC-44; first compound 0.6325 µM,1.03
same,relative viability,HCC-44; first compound 2 µM,1.01
same,relative viability,HCC-827; first compound 0.02 µM,0.223
same,relative viability,HCC-827; first compound 0.2 µM,0.119
same,relative viability,HCC-827; first compound 0.6325 µM,0.145
same,relative viability,HCC-827; first compound 2 µM,0.11
same,relative viability,ChaGo-K-1; first compound 0.02 µM,0.895
same,relative viability,ChaGo-K-1; first compound 0.2 µM,0.614
same,relative viability,ChaGo-K-1; first compound 0.6325 µM,0.967
same,relative viability,ChaGo-K-1; first compound 2 µM,0.924
same,relative viability,LCLC-103H; first compound 0.02 µM,0.855
same,relative viability,LCLC-103H; first compound 0.2 µM,0.711
same,relative viability,LCLC-103H; first compound 0.6325 µM,0.821
same,relative viability,LCLC-103H; first compound 2 µM,0.772
same,relative viability,NCI-H2405; first compound 0.02 µM,0.702
same,relative viability,NCI-H2405; first compound 0.2 µM,0.594
same,relative viability,NCI-H2405; first compound 0.6325 µM,0.554
same,relative viability,NCI-H2405; first compound 2 µM,0.388
same,relative viability,NCI-H1734; first compound 0.02 µM,0.537
same,relative viability,NCI-H1734; first compound 0.6325 µM,0.622
same,relative viability,NCI-H1734; first compound 2 µM,0.566
CCNC(=O)c1noc(-c2cc(C(C)C)c(O)cc2O)c1-c1ccc(CN2CCOCC2)cc1 [Luminespib] + NC(=O)Nc1cc(-c2cccc(F)c2)sc1C(=O)N[C@H]1CCCNC1 [AZD7762] (partner 0.2 µM),relative viability,HCC-366; first compound 0.002 µM,0.392
same,relative viability,HCC-366; first compound 0.006325 µM,0.302
same,relative viability,HCC-366; first compound 0.02 µM,0.331
same,relative viability,HCC-366; first compound 0.06325 µM,0.0393
same,relative viability,HCC-366; first compound 0.2 µM,0.0222
same,relative viability,NCI-H3122; first compound 0.002 µM,0.948
same,relative viability,NCI-H3122; first compound 0.006325 µM,0.942
same,relative viability,NCI-H3122; first compound 0.02 µM,0.626
same,relative viability,NCI-H3122; first compound 0.06325 µM,0.109
same,relative viability,NCI-H3122; first compound 0.2 µM,0.0654
same,relative viability,ABC-1; first compound 0.002 µM,0.822
same,relative viability,ABC-1; first compound 0.006325 µM,0.737
same,relative viability,ABC-1; first compound 0.02 µM,0.715
same,relative viability,ABC-1; first compound 0.06325 µM,0.248
same,relative viability,ABC-1; first compound 0.2 µM,0.212
same,relative viability,EPLC-272H; first compound 0.002 µM,0.224
same,relative viability,EPLC-272H; first compound 0.006325 µM,0.389
same,relative viability,EPLC-272H; first compound 0.02 µM,0.193
same,relative viability,EPLC-272H; first compound 0.06325 µM,0.0934
same,relative viability,EPLC-272H; first compound 0.2 µM,0.127
same,relative viability,HCC-15; first compound 0.002 µM,1.11
same,relative viability,HCC-15; first compound 0.006325 µM,1.11
same,relative viability,HCC-15; first compound 0.02 µM,1.36
same,relative viability,HCC-15; first compound 0.06325 µM,1.14
same,relative viability,HCC-15; first compound 0.2 µM,0.247
same,relative viability,PC-14; first compound 0.002 µM,0.32
same,relative viability,PC-14; first compound 0.006325 µM,0.38
same,relative viability,PC-14; first compound 0.02 µM,0.179
same,relative viability,PC-14; first compound 0.06325 µM,0.102
same,relative viability,PC-14; first compound 0.2 µM,0.0933
same,relative viability,NCI-H1355; first compound 0.002 µM,0.822
same,relative viability,NCI-H1355; first compound 0.006325 µM,0.693
same,relative viability,NCI-H1355; first compound 0.02 µM,0.526
same,relative viability,NCI-H1355; first compound 0.06325 µM,0.324
same,relative viability,NCI-H1355; first compound 0.2 µM,0.145
same,relative viability,NCI-H2347; first compound 0.002 µM,0.844
same,relative viability,NCI-H2347; first compound 0.006325 µM,0.719
same,relative viability,NCI-H2347; first compound 0.02 µM,0.614
same,relative viability,NCI-H2347; first compound 0.06325 µM,0.469
same,relative viability,NCI-H2347; first compound 0.2 µM,0.202
same,relative viability,NCI-H1944; first compound 0.002 µM,0.525
same,relative viability,NCI-H1944; first compound 0.006325 µM,0.426
same,relative viability,NCI-H1944; first compound 0.02 µM,0.307
same,relative viability,NCI-H1944; first compound 0.06325 µM,0.149
same,relative viability,NCI-H1944; first compound 0.2 µM,0.134
same,relative viability,NCI-H1793; first compound 0.002 µM,0.406
same,relative viability,NCI-H1793; first compound 0.006325 µM,0.422
same,relative viability,NCI-H1793; first compound 0.02 µM,0.15
same,relative viability,NCI-H1793; first compound 0.06325 µM,0.0769
same,relative viability,NCI-H1793; first compound 0.2 µM,0.11
same,relative viability,NCI-H2085; first compound 0.002 µM,0.923
same,relative viability,NCI-H2085; first compound 0.006325 µM,0.909
same,relative viability,NCI-H2085; first compound 0.02 µM,0.694
same,relative viability,NCI-H2085; first compound 0.06325 µM,0.389
same,relative viability,NCI-H2085; first compound 0.2 µM,0.245
same,relative viability,HCC-44; first compound 0.002 µM,1.04
same,relative viability,HCC-44; first compound 0.006325 µM,0.995
same,relative viability,HCC-44; first compound 0.02 µM,1.15
same,relative viability,HCC-44; first compound 0.06325 µM,1.07
same,relative viability,HCC-44; first compound 0.2 µM,0.959
same,relative viability,HCC-827; first compound 0.002 µM,0.162
same,relative viability,HCC-827; first compound 0.006325 µM,0.234
same,relative viability,HCC-827; first compound 0.02 µM,0.16
same,relative viability,HCC-827; first compound 0.06325 µM,0.124
same,relative viability,HCC-827; first compound 0.2 µM,0.0952
same,relative viability,ChaGo-K-1; first compound 0.002 µM,0.9
same,relative viability,ChaGo-K-1; first compound 0.006325 µM,0.905
same,relative viability,ChaGo-K-1; first compound 0.02 µM,0.799
same,relative viability,ChaGo-K-1; first compound 0.06325 µM,0.515
same,relative viability,ChaGo-K-1; first compound 0.2 µM,0.172
same,relative viability,LCLC-103H; first compound 0.002 µM,0.934
same,relative viability,LCLC-103H; first compound 0.006325 µM,0.699
same,relative viability,LCLC-103H; first compound 0.02 µM,0.639
same,relative viability,LCLC-103H; first compound 0.06325 µM,0.739
same,relative viability,LCLC-103H; first compound 0.2 µM,0.726
same,relative viability,NCI-H2405; first compound 0.002 µM,0.865
same,relative viability,NCI-H2405; first compound 0.02 µM,0.711
same,relative viability,NCI-H2405; first compound 0.06325 µM,0.167
same,relative viability,NCI-H2405; first compound 0.2 µM,0.127
same,relative viability,NCI-H1734; first compound 0.002 µM,0.516
same,relative viability,NCI-H1734; first compound 0.006325 µM,0.497
same,relative viability,NCI-H1734; first compound 0.02 µM,0.28
same,relative viability,NCI-H1734; first compound 0.06325 µM,0.0991
same,relative viability,NCI-H1734; first compound 0.2 µM,0.124
